Reference: patent publication US7553966B2, “Glucocorticoid mimetics, methods of making them, pharmaceutical compositions, and uses thereof” (Boehringer Ingelheim Pharmaceuticals, Inc., priority 2002, dated 2009)

Columns and labels:
[1] = target: T1, human glucocorticoid receptor (GR) complex (Homo sapiens, UniProt P04150); assay: Glucocorticoid Receptor Competitive Binding Assay (fluorescence polarization, TAMRA-labeled dexamethasone probe); conditions: qualitative statement; competition with TAMRA-labeled dexamethasone
T1 construct: made in house; host or cells: insect expression system (baculovirus lysate)
T1 sequence (P04150 1-777): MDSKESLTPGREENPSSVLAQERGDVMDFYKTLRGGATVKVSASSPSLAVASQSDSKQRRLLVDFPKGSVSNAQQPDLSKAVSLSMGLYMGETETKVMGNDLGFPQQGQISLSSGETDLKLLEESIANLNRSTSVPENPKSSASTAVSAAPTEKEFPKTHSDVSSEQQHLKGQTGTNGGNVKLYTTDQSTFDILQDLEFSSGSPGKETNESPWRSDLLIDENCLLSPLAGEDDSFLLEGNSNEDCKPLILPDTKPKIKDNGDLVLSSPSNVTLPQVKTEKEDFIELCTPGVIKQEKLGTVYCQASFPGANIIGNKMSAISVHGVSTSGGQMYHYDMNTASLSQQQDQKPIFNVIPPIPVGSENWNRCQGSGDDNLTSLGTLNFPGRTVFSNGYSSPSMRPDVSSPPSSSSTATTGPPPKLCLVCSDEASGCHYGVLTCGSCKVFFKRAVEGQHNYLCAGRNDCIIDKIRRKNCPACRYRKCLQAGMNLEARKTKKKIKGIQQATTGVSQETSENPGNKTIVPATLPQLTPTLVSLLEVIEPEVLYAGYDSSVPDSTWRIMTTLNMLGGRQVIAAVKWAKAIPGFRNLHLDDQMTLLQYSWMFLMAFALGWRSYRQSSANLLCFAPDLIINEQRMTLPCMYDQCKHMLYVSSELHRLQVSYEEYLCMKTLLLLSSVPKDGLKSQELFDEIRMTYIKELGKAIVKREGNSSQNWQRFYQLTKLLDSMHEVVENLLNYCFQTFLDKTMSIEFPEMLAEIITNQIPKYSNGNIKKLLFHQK
In short: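 Competition with TAMRA-dexamethasone for a human GR complex expressed in insect cells, read by fluorescence polarization. Buffer was 10 mM TES, 50 mM KCl, 20 mM Na2MoO4, 1.5 mM EDTA, 0.04% CHAPS, 10% glycerol, 1 mM DTT, pH 7.4.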

glucocorticoid receptor = assay: Glucocorticoid Receptor Cell Assays (agonist activity in one or more of the above assays); type: cell-based; conditions: qualitative statement; assay not specified

Row | Structure (SMILES) | activity in the GR binding assay [1] | activity as agonists of the glucocorticoid receptor function in one or more of the above assays (glucocorticoid receptor)
1 | Cc1cc(C#N)cc2[nH]c(CC(O)(CC(C)(C)c3ccc(F)cc3)C(F)(F)F)cc12 (centres unmarked) [2-[4-(4-Fluorophenyl)-2-hydroxy-4-methyl-2-trifluoromethylpentyl]-4-methyl-1H-indole-6-carbonitrile] | potent activity | potent agonists
2 | COc1ccccc1C(C)(C)CC(O)(Cc1cc2ccccc2[nH]1)C(F)(F)F (centres unmarked) [1,1,1-Trifluoro-2-(1H-indol-2-ylmethyl)-4-(2-methoxyphenyl)-4-methylpentan-2-ol] | potent activity | potent agonists
3 | CC(C)(CC(O)(Cc1ccnc2ccccc12)C(F)(F)F)c1ccccc1O (centres unmarked) [2-(4,4,4-Trifluoro-3-hydroxy-1,1-dimethyl-3-quinolin-4-ylmethylbutyl)phenol] | potent activity | potent agonists
4 | Cc1cc2c(c(C(C)(C)CC(O)(Cc3ccnc4ccccc34)C(F)(F)F)c1)OCC2 (centres unmarked) [1,1,1-Trifluoro-4-methyl-4-(5-methyl-2,3-dihydrobenzofuran-7-yl)-2-quinolin-4-ylmethylpentan-2-ol] | potent activity | potent agonists
5 | COc1ccc(F)cc1C(C)(C)CC(O)(Cc1ccnc2ccccc12)C(F)(F)F (centres unmarked) [1,1,1-Trifluoro-4-(5-fluoro-2-methoxyphenyl)-4-methyl-2-(quinolin-4-ylmethyl)pentan-2-ol] | potent activity | potent agonists
6 | COc1cc(F)ccc1C(C)(C)CC(O)(Cc1cc2ccncc2[nH]1)C(F)(F)F (centres unmarked) [1,1,1-Trifluoro-4-(4-fluoro-2-methoxyphenyl)-4-methyl-2-(1H-pyrrolo[2,3-c]pyridin-2-ylmethyl)pentan-2-ol] | potent activity | potent agonists
7 | COc1cccc(C(C)(C)CC(O)(Cc2ccnc3ccccc23)C(F)(F)F)c1 (centres unmarked) [1,1,1-Trifluoro-4-(3-methoxyphenyl)-4-methyl-2-quinolin-4-ylmethylpentan-2-ol] | potent activity | potent agonists
8 | COc1ccc(F)cc1C(C)(C)CC(O)(Cc1cc(Cl)nc(Cl)c1)C(F)(F)F (centres unmarked) [2-(2,6-Dichloropyridin-4-ylmethyl)-1,1,1-trifluoro-4-(5-fluoro-2-methoxyphenyl)-4-methylpentan-2-ol] | potent activity | potent agonists
9 | Cc1cccc(C(C)(C)CC(O)(Cc2cc3ccccc3[nH]2)C(F)(F)F)c1 (centres unmarked) [1,1,1-Trifluoro-2-(1H-indol-2-ylmethyl)-4-methyl-4-m-tolylpentan-2-ol] | potent activity | potent agonists
10 | COc1cc(F)ccc1C(C)(C)CC(O)(Cc1cc2cnccc2[nH]1)C(F)(F)F (centres unmarked) [1,1,1-Trifluoro-4-(4-fluoro-2-methoxyphenyl)-4-methyl-2-(1H-pyrrolo[3,2-c]pyridin-2-ylmethyl)pentan-2-ol] | potent activity | potent agonists
11 | COc1cc(F)ccc1C(C)(C)CC(O)(Cc1cc2ccccc2[nH]1)C(F)(F)F (centres unmarked) [1,1,1-Trifluoro-4-(4-fluoro-2-methoxyphenyl)-2-(1H-indol-2-ylmethyl)-4-methylpentan-2-ol] | potent activity | potent agonists
12 | Cc1cc2c(c(C(C)(C)CC(O)(Cc3cc4ccccc4[nH]3)C(F)(F)F)c1)OCC2 (centres unmarked) [1,1,1-Trifluoro-2-(1H-indol-2-ylmethyl)-4-methyl-4-(5-methyl-2,3-dihydrobenzofuran-7-yl)pentan-2-ol] | potent activity | potent agonists
13 | CC(C)(CC(O)(Cc1ccnc2ccccc12)C(F)(F)F)c1cc(Br)cc2c1OCC2 (centres unmarked) [4-(5-Bromo-2,3-dihydrobenzofuran-7-yl)-1,1,1-trifluoro-4-methyl-2-quinolin-4-ylmethylpentan-2-ol] | potent activity | potent agonists
